36 molecules from patent publication US8592422B2, “Bicyclic triazole and pyrazole lactams as allosteric modulators of mGluR5 receptors” (Vanderbilt University, priority 2010, dated 2013) can be followed below.

The target of this assay is T1, human mGluR5a receptor (Homo sapiens, UniProt P41594).
T1 construct: cDNA subcloned into pcDNA3.1(-)
Nature of the assay: Cell-based functional Ca2+ mobilization assay (FDSS), potentiation of glutamate EC20 response. As to conditions: for pEC50 / EC50: HEK cells transfected with human mGluR5 (H10H or H12H), in presence of EC20 glutamate; for EC50: read-out: EC50; for Emax (%) / Emax: maximum % effect in concentration-response curve, as percent of response to maximally effective glutamate. As to the method:
Human embryonic kidney (HEK) cells transfected with rat mGluR5 were plated in clear bottom assay plates for assay in a Functional Drug Screening System (FDSS). In the alternative assay, HEK cells transfected with human mGluR5 were plated for assay in the FDSS. In some cases the HEK cells transfected with human mGluR5 were the H10H cell line. Alternatively, the HEK cells transfected with human mGluR5 were the H12H cell line. […] The cells were loaded with a Ca^2+-sensitive fluorescent dye (e.g., Fluo-4), and the plates were washed and placed in the FDSS instrument. After establishment of a fluorescence baseline for twelve seconds, the compounds of the present invention were added to the cells, and the response in cells was measured. Alternatively, in various further aspects, after establishment of a fluorescence baseline for about three seconds, the compounds of the present invention were added to the cells, and the response in cells was measured. Five minutes later, an mGluR5 agonist (e.g., glutamate, 3,5-dihydroxyphenylglycine, or quisqualate) was added to the cells, and the response of the cells was measured.
The above described assay operated in two modes. In the first mode, a range of concentrations of the present compounds were added to cells, followed by a single fixed concentration of agonist. If a compound acted as a potentiator, an EC50 value for potentiation and a maximum extent of potentiation by the compound at this concentration of agonist was determined by non-linear curve fitting. In the second mode, several fixed concentrations of the present compounds were added to various wells on a plate, followed by a range of concentrations of agonist for each concentration of present compound; the EC50 values for the agonist at each concentration of compound were determined by non-linear curve fitting. A decrease in the EC50 value of the agonist with increasing concentrations of the present compounds (a leftward shift of the agonist concentration-response curve) is an indication of the degree of mGluR5 potentiation at a given concentration of the present compound. An increase in the EC50 value of the agonist with increasing concentrations of the present compounds (a rightward shift of the agonist concentration-response curve) is an indication of the degree of mGluR5 antagonism at a given concentration of the present compound. The second mode also indicates whether the present compounds also affect the maximum response to mGluR5 to agonists.
The mGluR5 activity was determined using the metabotropic glutamate receptor activity assays in human embryonic kidney cells as described herein, wherein the human embryonic kidney cells were transfected with human mGluR5. The compounds in Table 1 were synthesized with methods identical or analogous to those shown herein. The requisite starting materials were commercially available, described in the literature, or readily synthesized by one skilled in the art of organic synthesis. The compound number given in Table I corresponds to the compound number in Table II and the structure given therein.
Human mGluR5a cDNA in pCMV6-XL6 mammalian expression plasmid was purchased from OriGene Technologies, Inc. (catalogue number SC326357) and subcloned into pcDNA3.1(−). Human embryonic kidney (HEK) 293A cells were then transfected with human mGluR5a pcDNA3.1(−) using LipofectAmine-2000 (Invitrogen) and monoclones were selected and tested for functional response using a Ca^2+ mobilization assay. Monoclones were named for the species (“H” for human) plus the location on the plate (e.g. “10H”).
HEK cells transfected with the human mGluR5a receptor (H10H or H12H cell line) were plated at 15,000 cells/well in clear-bottomed poly-D-lysine-coated assay plates (BD Falcon) in glutamate-glutamine-free growth medium and incubated overnight at 37° C. and 5% CO2.

Molecules are shown by their SMILES. Bounds are passed on as bounds.

T1 sequence (P41594 21-1180 isoform P41594-2 limits assumed): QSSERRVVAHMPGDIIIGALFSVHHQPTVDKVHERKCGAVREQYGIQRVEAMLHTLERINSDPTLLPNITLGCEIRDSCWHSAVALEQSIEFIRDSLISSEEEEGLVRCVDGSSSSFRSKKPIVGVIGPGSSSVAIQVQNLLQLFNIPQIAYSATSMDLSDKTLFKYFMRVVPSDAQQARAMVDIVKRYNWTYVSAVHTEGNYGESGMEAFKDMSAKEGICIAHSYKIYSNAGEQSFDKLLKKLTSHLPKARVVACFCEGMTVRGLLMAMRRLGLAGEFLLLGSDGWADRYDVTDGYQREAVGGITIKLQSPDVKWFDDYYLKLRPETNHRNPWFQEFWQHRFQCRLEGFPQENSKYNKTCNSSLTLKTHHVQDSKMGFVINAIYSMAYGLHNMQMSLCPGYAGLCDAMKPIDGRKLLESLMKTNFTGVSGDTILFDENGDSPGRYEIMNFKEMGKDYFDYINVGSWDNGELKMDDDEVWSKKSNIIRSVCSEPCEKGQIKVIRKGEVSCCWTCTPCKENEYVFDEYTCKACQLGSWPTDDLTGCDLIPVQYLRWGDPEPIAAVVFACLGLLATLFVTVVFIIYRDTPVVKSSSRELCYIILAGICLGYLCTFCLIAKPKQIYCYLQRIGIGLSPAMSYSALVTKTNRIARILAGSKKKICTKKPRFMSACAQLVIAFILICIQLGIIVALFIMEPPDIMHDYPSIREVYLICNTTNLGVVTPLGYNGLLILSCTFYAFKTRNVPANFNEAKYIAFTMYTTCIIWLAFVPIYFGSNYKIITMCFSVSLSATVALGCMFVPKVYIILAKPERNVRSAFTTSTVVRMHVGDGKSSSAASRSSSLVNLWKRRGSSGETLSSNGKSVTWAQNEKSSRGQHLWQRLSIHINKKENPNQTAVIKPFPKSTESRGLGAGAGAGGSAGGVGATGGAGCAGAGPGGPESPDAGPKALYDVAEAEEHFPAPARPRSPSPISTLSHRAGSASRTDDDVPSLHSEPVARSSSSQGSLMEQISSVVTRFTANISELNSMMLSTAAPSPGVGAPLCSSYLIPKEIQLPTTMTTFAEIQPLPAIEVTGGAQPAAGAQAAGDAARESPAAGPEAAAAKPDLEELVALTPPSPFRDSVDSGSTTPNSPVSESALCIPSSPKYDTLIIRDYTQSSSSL

The pEC50 is the EC50 on a negative log10 scale, so that one unit is a factor of ten. One may read the EC50 as the midpoint of the concentration-response curve. Consider `CC1Cn2nc(COc3ccccc3)cc2C(=O)N1c1ccc(F)cc1` (racemic) [Example 18], for which the negative logarithm of the EC50 (pEC50) is 6.79, the EC50 came to 162 nM and the “Emax (%)” value came out at 70%.
For `CC1CN(c2ccc(F)cn2)C(=O)c2cc(COc3ccc(F)cc3)nn21` (racemic) [Example 237], in that order: 6.70, 200 nM and 52%.
`CC1CNC(=O)c2cc(COc3ccccc3)nn21` (racemic) [Example 250]: the negative logarithm of the EC50 (pEC50) is listed as <5.00, the concentration giving a half-maximal response (EC50) was > 10000 nM and the “Emax (%)” value turned out to be 52%.
Taken in the same sequence, the figures for `CC(Oc1ccccc1)c1cc2n(n1)CCN(CC1CC1)C2=O` (racemic) [Example 257] were <4.52, > 30200 nM and 25%.
Regarding `CC(Oc1ccccc1)c1cc2n(n1)CCN(c1ccc(F)cc1)C2=O` (racemic) [Example 258], the pEC50 is <5.00, the EC50 is > 10000 nM and the “Emax (%)” value came to 65%.
As for `O=C1c2cc(COc3ccccc3)nn2C(CO)CN1c1ccc(F)cc1` (racemic) [Example 263], the negative-log EC50 (pEC50) stood at 5.92, the EC50 worked out at 1200 nM and the “Emax (%)” value came to 87%.
Turning to `O=C1c2cc(COc3ccccc3)nn2C(CF)CN1c1ccc(F)cc1` (racemic) [Example 264], the pEC50 was determined as 6.95, the EC50 was determined as 112 nM and the “Emax (%)” value was found to be 63%.
In the case of `O=C1c2cc(COc3ccccc3)nn2C(F)CN1c1ccc(F)cc1` (racemic) [Example 271], the pEC50 came to 7.05, the EC50 stood at 89 nM and the “Emax (%)” value turned out to be 66%.
In the case of `CC1CN(CC2CC2)C(=O)c2cc(COc3ccccc3)nn21` (single isomer, unassigned) [Example 128], the pEC50 was 6.85, the EC50 is 141 nM and the “Emax (%)” value turned out to be 66%.
Consider `CC1CN(CC2CC2)C(=O)c2cc(COc3ccccc3)nn21` (single isomer, unassigned) [Example 129], for which the pEC50 is listed as <4.52, the EC50 is > 30200 nM and the “Emax (%)” value amounted to 21%.
Consider `CC1CN(c2ccc(F)cc2)C(=O)c2cc(COc3ccccc3)nn21` (single isomer, unassigned) [Example 130], for which the pEC50 worked out at 7.08, the 50% effective concentration (EC50) came to 83 nM and the “Emax (%)” value amounted to 71%.
As for `CC1CN(c2ccc(F)cn2)C(=O)c2cc(COc3ccccc3)nn21` (single isomer, unassigned) [Example 132], the negative-log EC50 (pEC50) is 7.00, the EC50 was 100 nM and the “Emax (%)” value came to 68%.
Regarding `Cc1nc(N2CC(C)n3nc(COc4ccccc4)cc3C2=O)ccc1F` (single isomer, unassigned) [Example 135], the pEC50 worked out at 7.00, the 50% effective concentration (EC50) turned out to be 100 nM and the “Emax (%)” value amounted to 56%.
On to `CC1CN(c2ccc(F)cc2)C(=O)c2cc(COc3ccc(F)cc3)nn21` (single isomer, unassigned) [Example 238], for which the pEC50 turned out to be 6.87, the EC50 came to 135 nM and the “Emax (%)” value is reported as 67%.
Turning to `CC1CN(c2ccc(F)cc2)C(=O)c2cc(COc3cccc(F)c3)nn21` (single isomer, unassigned) [Example 239], the negative logarithm of the EC50 (pEC50) stood at 7.21, the EC50 came to 62 nM and the “Emax (%)” value was 72%.
Taken in the same sequence, the figures for `CC1CN(c2ccc(F)cc2)C(=O)c2cc(COc3ccccn3)nn21` (single isomer, unassigned) [Example 240] were <4.52, > 30200 nM and 23%.
For the molecule `O=C1c2cc(COc3ccccc3)nn2C(F)CN1c1ccc(F)cc1` (single isomer, unassigned) [Example 272], the negative-log EC50 (pEC50) is given as 7.04, the concentration for a half-maximal effect (EC50) stood at 91 nM and the “Emax (%)” value is listed as 69%.
On to `O=C1c2cc(COc3ccccc3)nn2C(F)CN1c1ccc(F)cc1` (single isomer, unassigned) [Example 273], for which the negative logarithm of the EC50 (pEC50) was 6.97, the EC50 is 107 nM and the “Emax (%)” value is 68%.
As to `Cc1nc2cc(N3CC(C)n4nc(COc5ccccc5)cc4C3=O)ccc2s1` (single isomer, unassigned) [Example 376], the negative logarithm of the EC50 (pEC50) was determined as 7.12, the EC50 is 75 nM and the “Emax (%)” value was 60%.
For `O=C1NCCn2nc(COc3ccccc3)cc21` [Example 1], in that order: 5.65, 2240 nM and 69%.
With `CN1CCn2nc(COc3ccccc3)cc2C1=O` [Example 2], the pEC50 was determined as 5.87, the EC50 was determined as 1350 nM and the “Emax (%)” value worked out at 72%.
For `O=C1c2cc(COc3ccccc3)nn2CCN1c1ccc(F)cc1F` [Example 3], the negative logarithm of the EC50 (pEC50) is given as 6.94, the EC50 turned out to be 115 nM and the “Emax (%)” value was 101%.
As a reminder, the Emax is the maximal effect, on the per cent scale that the assay sets. In the case of `O=c1c2nc(COc3ccccc3)nn2ccn1-c1ccc(F)cc1` [Example 4], the 50% effective concentration (EC50) was found to be 617 nM and the Emax turned out to be 52%.
As for `O=C1c2nc(COc3ccccc3)nn2CCN1c1ccc(F)cc1` [Example 5], the negative-log EC50 (pEC50) was 5.59, the EC50 came to 2570 nM and the “Emax (%)” value was 73%.
`O=C1c2cc(COc3ccccc3)nn2CCN1c1ccc(F)cc1` [Example 6]: the pEC50 came to 7.14, the concentration for a half-maximal effect (EC50) stood at 72 nM and the “Emax (%)” value amounted to 82%.
Turning to `O=C1c2cc(COc3ccccc3)nn2CCN1c1ccc(F)cn1` [Example 11], the negative logarithm of the EC50 (pEC50) was found to be 6.81, the EC50 is 155 nM and the “Emax (%)” value amounted to 79%.
As for `O=C1c2cc(COc3ccccc3)nn2CCN1c1ccccn1` [Example 12], the negative-log EC50 (pEC50) is listed as 6.06, the EC50 was determined as 871 nM and the “Emax (%)” value is reported as 69%.
In the case of `O=C1c2cc(COc3ccccc3)nn2CCN1c1cccnc1` [Example 13], the pEC50 is reported as 5.73, the EC50 turned out to be 1860 nM and the “Emax (%)” value was 64%.
As for `Cc1ccc(N2CCn3nc(COc4ccccc4)cc3C2=O)nc1` [Example 16], the pEC50 is given as 6.68, the EC50 was found to be 209 nM and the “Emax (%)” value turned out to be 76%.
Taken in the same sequence, the figures for `CC(C)CN1CCn2nc(COc3ccccc3)cc2C1=O` [Example 26] were 6.98, 105 nM and 75%.
For `O=C1c2cc(COc3ccccc3)nn2CCN1c1ccncc1F` [Example 29], in that order: 6.24, 575 nM and 80%.
With `Cc1cccnc1N1CCn2nc(COc3ccccc3)cc2C1=O` [Example 30], the EC50 was determined as 537 nM and the Emax was determined as 75%.
With `Cc1ccncc1N1CCn2nc(COc3ccccc3)cc2C1=O` [Example 32], the negative logarithm of the EC50 (pEC50) was found to be 6.13, the 50% effective concentration (EC50) turned out to be 741 nM and the “Emax (%)” value was found to be 74%.
As to `Cn1ccn2nc(COc3ccccc3)cc2c1=O` [Example 37], the EC50 worked out at 2070 nM and the Emax was found to be 74%.
Consider `Cc1cccc(N2CCn3nc(COc4ccccc4)cc3C2=O)c1` [Example 48], for which the pEC50 was found to be 7.09, the 50% effective concentration (EC50) was 81 nM and the “Emax (%)” value came to 65%.
As for `Cc1ccc(N2CCn3nc(COc4ccccc4)cc3C2=O)cc1` [Example 49], the negative-log EC50 (pEC50) was 7.09, the EC50 was 81 nM and the “Emax (%)” value is on record as 64%.
